Columns and labels:
[1] = biological target: T1, Indoleamine 2,3-dioxygenase 1 (Homo sapiens, UniProt P14902); assay: Inhibition of human recombinant IDO1 using L-tryptophan as substrate after 15 mins by Dixon plot analysis
[2] = biological target: T1, Indoleamine 2,3-dioxygenase 1; assay: Inhibition of 6His-tagged human recombinant IDO1 expressed in Escherichia coli EC 539 using L-tryptophan as substrate after 1 hr by plate reader analysis
[3] = Competitive inhibition of rabbit small intestine IDO1 by double reciprocal plot analysis in presence of L-tryptophan; parameters: species or system Oryctolagus cuniculus
[4] = biological target: T1, Indoleamine 2,3-dioxygenase 1; assay: Inhibition of N-terminal His-tagged human recombinant IDO1 expressed in Escherichia coli using L-tryptophan as substrate by methylene blue/ascorbate assay
[5] = biological target: T1, Indoleamine 2,3-dioxygenase 1; assay: Inhibition of IDO (unknown origin)
[6] = biological target: T1, Indoleamine 2,3-dioxygenase 1; assay: Inhibition of N-terminal His-tagged human recombinant IDO1 expressed in Escherichia coli using tryptophan as substrate by UV-visible absorption spectroscopy
[7] = biological target: T1, Indoleamine 2,3-dioxygenase 1; assay: Inhibition of IFN-gamma-stimulated IDO1 activity in human HeLa cells using L-tryptophan as substrate after 48 hrs by spectrophotometric analysis; assay type: cell-based
[8] = biological target: T1, Indoleamine 2,3-dioxygenase 1; assay: Inhibition of N-terminal His-tagged human recombinant IDO1 expressed in Escherichia coli using L-tryptophan as substrate preincubated for 10 mins followed by substrate addition measured after 30 mins by plate reader analysis
[9] = biological target: T1, Indoleamine 2,3-dioxygenase 1; assay: Inhibition of human IDO1 in HEK293 cells after 20 hrs by plate reader assay; assay type: cell-based
[10] = biological target: T1, Indoleamine 2,3-dioxygenase 1; assay: Inhibition of C-terminal 6His-tagged human IDO using L-tryptophan as substrate preincubated for 5 mins followed by substrate addition measured after 15 mins by spectrophotometric analysis
[11] = biological target: T1, Indoleamine 2,3-dioxygenase 1; assay: Inhibition of N-terminal hexa-Histidine tagged human IDO1 expressed in Escherichia coli using L-tryptophan as substrate after 30 mins by HPLC analysis
[12] = biological target: T1, Indoleamine 2,3-dioxygenase 1; assay: Inhibition of human recombinant IDO1 expressed in yeast IS20-2B using tryptophan as substrate by methylene blue/ascorbate assay
[13] = biological target: T1, Indoleamine 2,3-dioxygenase 1; assay: Inhibition of human IDO using L-tryptophan as substrate preincubated for 5 mins followed by substrate addition measured after 15 mins by spectrophotometric analysis
[14] = biological target: T1, Indoleamine 2,3-dioxygenase 1; assay: Noncompetitive inhibition of human recombinant IDO1 expressed in Escherichia coli by Michaelis-Menton nonlinear regression plot analysis in presence of L-tryptophan
[15] = biological target: T1, Indoleamine 2,3-dioxygenase 1; assay: Competitive inhibition of 6His-tagged human recombinant IDO expressed in Escherichia coli BL21DE3pLys

T1 sequence (P14902 whole entry): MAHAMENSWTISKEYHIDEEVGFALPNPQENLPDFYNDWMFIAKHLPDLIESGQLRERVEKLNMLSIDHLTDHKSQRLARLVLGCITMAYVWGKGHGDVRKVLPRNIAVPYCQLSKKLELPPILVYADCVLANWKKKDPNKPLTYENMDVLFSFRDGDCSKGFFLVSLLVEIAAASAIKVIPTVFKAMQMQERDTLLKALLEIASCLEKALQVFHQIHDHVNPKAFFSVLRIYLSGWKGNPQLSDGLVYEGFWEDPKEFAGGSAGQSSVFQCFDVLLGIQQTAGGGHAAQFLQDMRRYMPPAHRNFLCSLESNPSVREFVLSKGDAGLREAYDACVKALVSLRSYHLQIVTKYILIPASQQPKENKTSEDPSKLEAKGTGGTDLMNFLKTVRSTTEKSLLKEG

N=C1C=C(N)C(=O)c2[nH]c(=O)ccc21
Ki [1]: 4.3 µM

COc1cccc2c1C(=O)C1=C(C[C@H](Cn3cc(-c4ccccc4)nn3)O[C@@H]1C)C2=O
IC50 [2]: 6 µM

N[C@@H](CC1=CCC=CC1)C(=O)O
Ki [3]: 230 µM

CC1(C)CCC[C@]2(C)[C@H]3CC=C(C=O)CC(O)[C@]3(C=O)CC[C@@H]12 (stereo partly drawn)
IC50 [4]: 7.7 µM

CN1C(=O)c2ccccc2-n2c(nc3ccccc3c2=O)C1[C@H](O)c1ccccc1 (stereo partly drawn)
IC50 [5]: 21 µM

Nc1oc2c(-c3ccnc(N4CCOCC4)c3)nccc2c1Nc1ccc(F)c(Cl)c1
IC50 [6]: < 0.2 µM

CCc1ccccc1Nc1cnn[nH]1
IC50 [7]: < 1 µM

COC1=CC(=O)c2oc(C)c(CO)c2C1=O
IC50 [8]: 0.24 µM

CCCC(CCC)Oc1c(Br)cc(-c2ccccc2-c2nnn[nH]2)cc1NC(=O)Nc1ccccc1F
IC50 [9]: 0.003 µM

CC(C)CN(CC(C)C)c1ccc(C(CC(=O)O)C(F)(F)F)cc1NC(=O)Nc1ccc(F)cc1F (stereo not drawn)
IC50 [9]: 0.003 µM

O=C(Cc1ccccc1)Nc1ccc(CCOc2ccccc2-c2cnc[nH]2)cc1
IC50 [10]: < 1 µM

COc1cc(OC(=O)c2c(C)c(C)c(OC(=O)c3c(C)cc(O)c(C)c3O)c(C)c2OC)c(C)c(C)c1C(=O)O
IC50 [5]: 15 µM

Cc1ccc(CC(=O)Nc2cc(-c3ccccc3-c3nnn[nH]3)ccc2N2CC3CC2CN3Cc2ccccc2)cc1 (stereo not drawn)
IC50 [9]: 0.005 µM

N#CC(Nc1ccc(F)c(Cl)c1)c1cc(Cl)ccc1O (stereo not drawn)
IC50 [11]: < 0.2 µM

C/N=C(N)/N=C(\N)Nc1cc2ccccc2c2ccccc12
Ki [12]: 1.5 µM

NOCc1ccccc1
IC50 [13]: < 10 µM

CC1(C)CCC2=C(O1)c1ccccc1C(=O)C2=O [LAPACHONE]
Ki [14]: 0.1 µM

CN1C(=O)C(Cc2c[nH]c3ccccc23)NC1=S (stereo not drawn) [NECROSTATIN]
Ki [15]: 12 µM

From ChEMBL document CHEMBL3745640, “Challenges in the Discovery of Indoleamine 2,3-Dioxygenase 1 (IDO1) Inhibitors” (J Med Chem, 2015)
